The record followed here is patent publication US20250144050A1, “AMINOTHIOL-CONJUGATES, COMPOSITIONS, AND METHODS OF USE THEREOF” (THE BURLINGTON HC RESEARCH GROUP, INC., priority 2021, published 2025).

Read-outs that look alike come from different tables or passages of the source. Bounds are passed on as bounds.

The subject of experiment [1] is A549. The experiment can be described thus: Trypan Blue cell count after 48 hour exposure. In kind it is cell-based, human. As to conditions: read-out: Average Growth Inhibitory Dose 50% [EC50], Lung CA (A549). As to the method:
(§1) To evaluate the anticancer activity of 4-arm star polyethylene glycol conjugated to WR-1065 (4SP65), the anticancer efficacy of 4SP65 was determined in some of the same cell lines used by NIH/NCI, and the methodology used was the same as is used by the NCI to evaluate chemotherapeutic agents currently in use (O'Connor et al., “Characterization of the p53 Tumor Suppressor Pathway in Cell Lines of the National Cancer Institute Anticancer Drug Screen and Correlations With the Growth-Inhibitory Potency of 123 Anticancer Agents,” Cancer Res. 57 (19): 4285-300 (1997), which is hereby incorporated by reference in its entirety). Testing of 6 cancer types was completed: (i) breast cancer (MDA-MB-231 cells), (ii) lung cancer (A549), (iii) prostate cancer cell line (LNCaP), (iv) myelogenous leukemia (HL60 cells), (v) ovarian cancer (SK-OV-3), and (vi) prostate cancer (DU-145).
(§2) Each cell line was grown in medium as recommended by the ATCC or as presented in the literature for that cell line. All cells were cultured in a water jacket incubator at 36-37° C. and in the presence of 5% CO2. To ensure optimal growth and viability, all cells were grown on plates coated with FNC (In Vitrogen). Cells were refed with growth medium twice weekly until they had reached 60 to 70% confluence. At this point, the medium was replaced with growth medium supplemented with 4SP65 at doses ranging from 0 to up to 300 micromolar. Cells were allowed to grow in the presence of this supplemented medium for 48 hours, and then they were removed by trypsinization, stained with Trypan Blue and counted in a hemocytometer. Three to four replicates for each dose group per experiment were performed. The percentage cell death was determined by comparing the average number of surviving cells exposed to 4SP65 versus the average number of surviving sham exposed cells.

Experiment [2] relates to DU-145. Briefly: Trypan Blue cell count after 48 hour exposure. In kind it is cell-based, human. As to conditions: read-out: Average Growth Inhibitory Dose 50% [EC50], Prostate CA (DU-145). As to the method: as §1, §2
Experiment [3] deals with HL60 cells. Briefly: Trypan Blue cell count after 48 hour exposure. As to conditions: read-out: Average Growth Inhibitory Dose 50% [EC50], Myelogenous Leukemia (HL60). In kind it is cell-based, human. As to the method: as §1, §2
The test system of experiment [4] is LNCaP. Briefly: Trypan Blue cell count after 48 hour exposure. In kind it is cell-based, human. As to conditions: read-out: Average Growth Inhibitory Dose 50% [EC50], Prostate cancer cell line (LNCaP). As to the method: as §1, §2
Experiment [5] relates to MDA-MB-231 cells. Briefly: Trypan Blue cell count after 48 hour exposure. In kind it is cell-based, human. The following applies: read-out: Average Growth Inhibitory Dose 50% [EC50], Breast CA (MDA-MB-231). As to the method:
as §1, §2

The subject of experiment [6] is SK-OV-3. The experiment can be described thus: Trypan Blue cell count after 48 hour exposure. In kind it is cell-based, human. As to conditions: read-out: Average Growth Inhibitory Dose 50% [EC50], Ovarian CA (SK-OV-3). As to the method: as §1, §2
Experiment [7] has as its system Normal human mammary epithelial cells (M99005). Briefly: Trypan Blue cell count, normal cells, 48 hours. In kind it is cell-based. As to the method: For comparison purposes, the growth inhibitory does of 4SP65 required to reduce the growth of normal human mammary epithelial cells by 50% was above 300 micromolar. The exact value has not been determined as of yet due to the fact that 4SP65 forms a hydrogel in medium when present at a concentration that exceeds 300 micromolar.
Normal human mammary epithelial cells were grown as described in Example 1, with the exception that the growth medium was as MEBM (purchased from American Type Tissue Culture Collection). When the cells had reach 50 to 60%, the growth medium was removed and medium supplemented with 0 to 300 microM 4SP65 was added to each well containing cells. At 48 hours, the cells were removed by trypsinization stained with Trypan Blue, and counted using a hemocytometer. […] The finding of a biphasic growth inhibition curve for WR-1065 has been reported previously (Calabro-Jones et al. “The limits to radioprotection of Chinese hamster V79 cells by WR-1065 under aerobic conditions.” Radiat Res. 149:550-559 (1998), which is hereby incorporated by reference in its entirety). Additional experiments now have been completed and are described infra).

Experiment [8] concerns H1437 NSCLC cells. The experiment can be described thus: Alamar Blue (resazurin) cellular reducing capacity. In kind it is cell-based, human. As to conditions: until cell numbers reduced to approximately 50% of controls. The text has this:
The aminothiol-conjugates of the present disclosure (e.g., 4SP65 and 1LP65) are disulfides that require reduction by glutathione or thioredoxin for the two constituent molecules (WR1065 and PEG-SH scaffold) to be released. […] After an aminothiol-conjugate of the present disclosure (e.g., 4SP65 and 1LP65) enters the cytoplasm, either glutathione or thioredoxin reduces the BRG disulfide bond (Rxn #1) to yield reduced WR1065 and PEG-SH scaffold. In normal cells with a reducing cytosolic redox balance, evidence of formation of free radical intermediates during this reaction has not been reported, but formation of […] has been reported (Nagy, P., “Kinetics and Mechanisms of Thiol-Disulfide Exchange Covering Direct Substitution and Thiol Oxidation-Mediated Pathways,” Antioxid Redox Signal 18 (13): 1623-1641 (2013), which is hereby incorporated by reference in its entirety). Conversely, in cancer cells where the cellular environment is shifted towards oxidizing conditions, there is evidence that reactive species such as thiyl free radicals can be formed (Nagy, P., “Kinetics and Mechanisms of Thiol-Disulfide Exchange Covering Direct Substitution and Thiol Oxidation-Mediated Pathways,” Antioxid. Redox Signal 18 (13): 1623-1641 (2013), which is hereby incorporated by reference in its entirety), which can have adverse effects in neoplastic cells. […]

For experiment [9], the system named is A549 NSCLC cells. The following applies: 48 h; for GI50 / IC50 / LC99 / TGI: each drug alone.
Method: Trypan Blue exclusion was applied as a complementary confirmation probe for cell death.
Statistical comparisons of differences in individual dose-response metrics between individual/paired drug treatments and various cell lines were conducted using the Student's t-test, with P-values <0.05 considered significant.
Relative cell growth inhibition values for differing levels each drug alone and in combination were input into SynergyFinder to generated dose-response curves for each drug alone, to produce a dose-response matrix, to visualize the distribution of areas of differing degrees of synergism in a 2-dimension heatmap and 3-dimension volcano plot, and to calculate average and maximum synergy scores in selected human cancer cell lines. […] Synergy scores <10 means that the interaction between two drugs was likely to be antagonistic; scores from −10 to 10 means the interaction between two drugs was likely to be additive; and scores >10 means the interaction between two drugs was likely to be synergistic.

4-star PEG-S-S-WR1065 [4SP65]: the EC50 in experiment [1] is 15 µM; in experiment [2], 6.7 µM; in [3], 3 µM; in experiment [4] it was 9.5 µM; in experiment [5], 4.5 µM; in [6], 5 µM. The EC50 in experiment [7] (normal human mammary epithelial cells, read-out: growth inhibitory dose required to reduce growth by 50%) is above 300 µM. Besides, in experiment [7] (0 to 300 microM except 100 microM, 48 hours), the “inhibition of cell growth” value is on record as “No inhibition of cell growth was observed”. Further, in experiment [8], the “cellular reducing capacity relative to control cells” value was around 100%. The “LC99, amount of each drug in combination” value in experiment [9] (4SP65-cisplatin combined) turned out to be 8 µM. Besides, the GI50 (commonly the concentration that inhibits growth by half) in experiment [9] (cisplatin series) turned out to be 5.4 ± 2.5 µM; in experiment [9] (gefitinib series) it was 6 ± 0.6 µM. For the same substance, the IC50 (in general, the point on the concentration scale where inhibition reaches its midpoint) in experiment [9] (cisplatin series) worked out at 6.8 ± 1.3 µM; in experiment [9] (gefitinib series), 7.4 ± 0.7 µM. For the same substance, the LC99 in [9] (cisplatin series) was found to be 14.9 ± 3.8 µM; in experiment [9] (gefitinib series) it was 12.3 ± 3.8 µM. Further, the TGI – broadly, the concentration giving total growth inhibition – was 8.3 ± 1.5 µM in experiment [9] (cisplatin series) and 11.3 ± 1.5 µM in [9] (gefitinib series).
